The subject of data set [1] is cleaved caspase-3, -9, and PARP. Kind of data set: Western blot, apoptotic proteins. Format: cell-based, human. As to conditions: DU-145, 24 h. The protocol: Briefly, DU-145 cells were seeded (1.0 × 10^6 cells/well) into six-well plates and maintained to attach at 37°C in 5% CO2. After 24 h, cells were treated with 0.25, 0.50, 1.0, and 1.5 μM of complex (2). DMSO (0.1% v/v) was used as the vehicle control. After 24 h of incubation, cells were collected and suspended in Western blotting lysis buffer (20 mM Tris-HCl pH 7.4, 150 mM NaCl, 1 mM EDTA, and phosphatase and protease inhibitors). Cell lysates were centrifuged at 11,000g for 15 min at 4 °C, and supernatant was collected. Protein concentrations were quantified using the BCA Protein Assay Kit® (Thermo Fischer Scientific), according to the manufacturer’s instructions. For immunoblotting, equal amounts (30 μg) of total protein were electrophoresed in a NuPAGE® 4-12% Bis-Tris gel and transferred to an Invitrolon™ polyvinylidene difluoride (PVDF) membrane (Novex®, Thermo Fischer Scientific) at 100 V for 1 h. PVDF-membrane was washed two times (5 min each) with Tris-buffered saline plus Tween 20 (TBST, Sigma-Aldrich) and blocked in 5% non-fat milk in phosphate buffered saline with Tween®20 (PBST, Sigma-Aldrich) for 1 h at room temperature. […]
For orientation: In western blotting, separated proteins are transferred to a membrane and probed.

In the next data set the test system is DU-145 cells. The experiment in a line: Comet assay, DU-145. The data set is classed as cell-based, human. As to conditions: DU-145, 0.5 μM, 24 h. The protocol: The comet assay was performed to evaluate DNA damage following the method described by ([37]). Briefly, DU-145 and PNT-2 cells were seeded (1.0 × 10^5 cells/well) in 24-well plates and maintained to attach at 37°C in 5% CO2 for 24 h. After, cells were treated with different concentrations of complex (2) for 24 h. DMSO (0.1% v/v) was used as the vehicle control and methyl methanesulfonate (150 μM, Sigma-Aldrich) as DNA damage inducer. Following 24 h of incubation, the cells were collected, and cell viability assay was performed using trypan blue dye. […] Then, cells were mixed with UltraPure™ Low-Melting-Point Agarose (0.5%, Invitrogen®), and added on pre-coated slides with UltraPure™ Agarose (1.5%, Invitrogen®). After agarose solidification, the slides were immersed in a lysis solution (2.5 M NaCl, 100 mM EDTA, 10 mM Tris, 10% DMSO, 1% Triton X-100, pH 10.4) for 18 h at 4°C. […] The nucleoids were identified in a fluorescence microscope (AxioStar Plus, Carl Zeiss Axio Cam MRc-AxioVision 3.1) using a 516 to 560 nm filter, 590 nm filter barrier, in 20× objective with an integrated digital camera. For each treatment, 100 random nucleoids were analyzed, and the tail fluorescence was measured through the Comet Assay IV™ imaging system (Perceptive Instruments^©, Bury St Edmunds, England).

The next data set concerns pBR322 plasmid DNA. Kind of data set: DNA interactions assay with pBR322 plasmid (agarose gel electrophoresis). The data set is classed as biochemical. Particulars: 1.0 μM, 37°C, 18 h. The protocol:
Plasmid pBR322 (38 µM, Sigma-Aldrich) was mixed with different concentrations (0.125–1.0 µM) of both complexes and incubated at 37°C for 18 h. Then, the loading buffer was added and the samples were analyzed by agarose gel electrophoresis for 90 min in 1% agarose gel using a Tris-acetate-EDTA (TAE) buffer (0.45 M Tris-HCl, 0.45 M acetic acid, 10 mM EDTA, pH 7.4), and ethidium bromide was employed for staining. Bands were visualized with a ChemiDoc MP imager (BioRad, USA).

SMILES strings stand for the structures.

As to `CC(C)=CCC1=C([O-])C(=O)c2ccccc2C1=O.F[P-](F)(F)(F)(F)F.[Ru+2].c1ccc(P(CP(c2ccccc2)c2ccccc2)c2ccccc2)cc1.c1cnc2c(c1)ccc1cccnc12` [complex (2), [Ru(Lap)(dppm)(phen)]PF6], the “activation of downstream apoptotic proteins” value in data set [1] was “increase in the activation of cleaved caspase-3, -9, and PARP”. The “DNA damage (comet tail intensity)” value in the data set on DU-145 cells was “significant DNA damage increase”. Besides, the “nuclease activity on pBR322 (supercoiled to linear)” value in the data set on pBR322 plasmid DNA was “single-strand DNA cleavage”.

(Values after publication PMC8264259, “A Novel Ruthenium(II) Complex With Lapachol Induces G2/M Phase Arrest Through Aurora-B Kinase Down-Regulation and ROS-Mediated Apoptosis in Human Prostate Adenocarcinoma Cells” (Frontiers in Oncology, 2021).)
